# Reference: paper PMC6600512, “Interactions between β-Lactoglobulin and 3,3′-Diindolylmethane in Model System” (Molecules, 2019)
# Target: T1, β-Lactoglobulin (β-LG) (Bos taurus, UniProt P02754)
# T1 construct: gene LGB
# T1 sequence (P02754 17-178): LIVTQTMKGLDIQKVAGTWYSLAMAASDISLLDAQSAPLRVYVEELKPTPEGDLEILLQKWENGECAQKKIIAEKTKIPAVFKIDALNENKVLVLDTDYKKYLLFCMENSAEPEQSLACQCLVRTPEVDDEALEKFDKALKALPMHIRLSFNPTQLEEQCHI
# Test: intrinsic fluorescence enhancement titration (binding constant from […]/ΔF vs […]/Cq); supported by CD, FT-IR, UV, DLS and zeta potential
# Settings: read-out: intrinsic fluorescence enhancement titration (binding constant from 1/ΔF vs 1/Cq) (converted)
smiles,measurement,value
"c1ccc2c(Cc3c[nH]c4ccccc34)c[nH]c2c1 [DIM, 3,3′-diindolylmethane]",Kd,1490 nM
